According to ChEMBL document CHEMBL1146293, “From dihydroxypyrimidine carboxylic acids to carboxamide HIV-1 integrase inhibitors: SAR around the amide moiety” (Bioorg Med Chem Lett, 2007):
Calls of active or inactive are those of the source. The calls are words filed in the database; no cut-off is given here.

Organism: Homo sapiens
Assay: Inhibitory activity against human DNA polymerase alpha
Details: not given

With `O=C(NCc1ccc(F)cc1)c1nc(-c2cccs2)nc(O)c1O` the Activity was “inactive”.

Biological target: Human immunodeficiency virus type 1 integrase (Human immunodeficiency virus 1, UniProt Q7ZJM1)
Assay: Inhibition of HIV1 integrase strand transfer activity
Details: not given

Human immunodeficiency virus type 1 integrase, sequence (Q7ZJM1 whole entry): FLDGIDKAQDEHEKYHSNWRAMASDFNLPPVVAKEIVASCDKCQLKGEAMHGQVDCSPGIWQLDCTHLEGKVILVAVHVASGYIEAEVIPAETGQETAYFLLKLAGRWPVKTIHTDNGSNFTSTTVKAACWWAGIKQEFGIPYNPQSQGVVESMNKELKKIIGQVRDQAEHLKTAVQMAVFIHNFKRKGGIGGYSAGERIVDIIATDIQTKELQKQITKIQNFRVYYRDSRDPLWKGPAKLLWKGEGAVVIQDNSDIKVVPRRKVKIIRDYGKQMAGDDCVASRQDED

In order of falling IC50:
1. O=C(NCc1ccc(-c2ccccc2)cc1)c1nc(-c2cccs2)nc(O)c1O  50000 nM
2. O=C(NCC1CCCCC1)c1nc(-c2cccs2)nc(O)c1O  50000 nM
3. O=C(NCc1ccncc1)c1nc(-c2cccs2)nc(O)c1O  16600 nM
4. O=C(Nc1cncs1)c1nc(-c2cccs2)nc(O)c1O  2500 nM
5. O=C(Nc1ccccc1)c1nc(-c2cccs2)nc(O)c1O  1000 nM
6. O=C(N[C@@H]1CCc2ccccc21)c1nc(-c2cccs2)nc(O)c1O  610 nM
7. C[C@@H](NC(=O)c1nc(-c2cccs2)nc(O)c1O)c1ccc2ccccc2c1  610 nM
8. COc1ccc(CNC(=O)c2nc(-c3cccs3)nc(O)c2O)cc1  550 nM
9. CN(C(=O)c1nc(-c2cccs2)nc(O)c1O)c1cccc2ccccc12  210 nM
10. O=C(Nc1nccs1)c1nc(-c2cccs2)nc(O)c1O  200 nM
11. O=C(NCc1ccccc1F)c1nc(-c2cccs2)nc(O)c1O  160 nM
12. O=C(NCc1ccccc1-c1ccccc1)c1nc(-c2cccs2)nc(O)c1O  130 nM
13. Cc1ccccc1CNC(=O)c1nc(-c2cccs2)nc(O)c1O  110 nM
14. O=C(Nc1cccs1)c1nc(-c2cccs2)nc(O)c1O  100 nM
15. COc1ccccc1CNC(=O)c1nc(-c2cccs2)nc(O)c1O  90 nM
16. Cc1ccc(CNC(=O)c2nc(-c3cccs3)nc(O)c2O)cc1  70 nM
17. O=C(NCc1cccc(F)c1)c1nc(-c2cccs2)nc(O)c1O  70 nM
18. O=C(Nc1csc2ccccc12)c1nc(-c2cccs2)nc(O)c1O  50 nM
19. O=C(NCc1cccc(-c2ccccc2)c1)c1nc(-c2cccs2)nc(O)c1O  50 nM
20. COc1cccc(CNC(=O)c2nc(-c3cccs3)nc(O)c2O)c1  50 nM
21. C[C@H](NC(=O)c1nc(-c2cccs2)nc(O)c1O)c1ccc2ccccc2c1  40 nM
22. Cc1cccc(CNC(=O)c2nc(-c3cccs3)nc(O)c2O)c1  40 nM
23. O=C(Nc1cccc2ccccc12)c1nc(-c2cccs2)nc(O)c1O  30 nM
24. O=C(NCc1c[nH]c2ccccc12)c1nc(-c2cccs2)nc(O)c1O  20 nM
25. O=C(N[C@H]1CCc2ccccc21)c1nc(-c2cccs2)nc(O)c1O  20 nM
26. O=C(NCc1ccc(Cl)cc1)c1nc(-c2cccs2)nc(O)c1O  20 nM
27. O=C(NCCc1ccccc1)c1nc(-c2cccs2)nc(O)c1O  20 nM
28. O=C(Nc1cc2ccccc2s1)c1nc(-c2cccs2)nc(O)c1O  10 nM
29. O=C(NCc1ccc(Cl)c(Cl)c1)c1nc(-c2cccs2)nc(O)c1O  10 nM

System: Human immunodeficiency virus
Assay: Inhibition of HIV reverse transcriptase
Details: not given

For `O=C(NCc1ccc(F)cc1)c1nc(-c2cccs2)nc(O)c1O`, the Activity was “inactive”.

System: not listed separately
Assay: Oral bioavailability in rat
Format: ADME, organism-based
Details: in vivo

For `O=C(NCc1ccc(F)cc1)c1nc(-c2cccs2)nc(O)c1O`, the bioavailability was 39%.

System: not listed separately
Assay: Plasma clearance in rat
Format: ADME, organism-based
Details: not given

With `O=C(NCc1ccc(F)cc1)c1nc(-c2cccs2)nc(O)c1O` the clearance was 11 mL/min/kg.

Organism: Homo sapiens
Assay: Inhibitory activity against human DNA polymerase beta
Details: not given

With `O=C(NCc1ccc(F)cc1)c1nc(-c2cccs2)nc(O)c1O` the Activity was “inactive”.

Organism: Homo sapiens
Assay: Inhibitory activity against human DNA polymerase gamma
Details: not given

For `O=C(NCc1ccc(F)cc1)c1nc(-c2cccs2)nc(O)c1O`, the Activity was “inactive”.

System: Hepacivirus hominis
Assay: Inhibition of HCV NS5b polymerase
Details: not given

With `O=C(O)c1nc(-c2cccs2)nc(O)c1O` the Activity was “inactive”.
